Measured values published in PubChem BioAssay AID256 (DTP/NCI, 2004).
Inconclusive results and toxic doses are left out. How the source made its calls: active means survival T/C of 150% or more; inactive means T/C below 125% in these data.

Tested on: CD2F1 mice, L1210 leukemia ip, survival T/C
Experiment: NCI In Vivo Anticancer Drug Screen. Data for tumor model L1210 Leukemia (intraperitoneal) in CD2F1 (CDF1) mice
Details: endpoint: mean survival time, higher = longer survival
Method in brief: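 Antitumor effect is scored in animals hosting a serially transplanted tumor. Values compare compound-dosed animals against vehicle-only controls as a simple quotient.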

[1] = dose: 100.0 mg/kg/injection, schedule: Q01DX009 (ip), vehicle: saline with Tween-80
[2] = dose: 200.0 mg/kg/injection, schedule: Q01DX009 (ip), vehicle: saline with Tween-80
[3] = dose: 400.0 mg/kg/injection, schedule: Q01DX009 (ip), vehicle: saline with Tween-80
[4] = dose: 100.0 mg/kg/injection, schedule: Q04DX003 (ip), vehicle: saline with Tween-80
[5] = dose: 200.0 mg/kg/injection, schedule: Q04DX003 (ip), vehicle: saline with Tween-80
[6] = dose: 400.0 mg/kg/injection, schedule: Q04DX003 (ip), vehicle: saline with Tween-80
[7] = dose: 50.0 mg/kg/injection, schedule: Q01DX009 (ip), vehicle: saline with Tween-80
[8] = dose: 25.0 mg/kg/injection, schedule: Q01DX009 (ip), vehicle: saline with Tween-80
[9] = dose: 100.0 mg/kg/injection, schedule: Q01DX001 (ip), vehicle: saline with Tween-80
[10] = dose: 200.0 mg/kg/injection, schedule: Q01DX001 (ip), vehicle: saline with Tween-80
[11] = dose: 400.0 mg/kg/injection, schedule: Q01DX001 (ip), vehicle: saline with Tween-80
[12] = dose: 100.0 mg/kg/injection, schedule: Q04DX003 (ip), vehicle: saline

Measured: T/C

On1ccnc2nncc1-2
inactive: dose: 11.3 mg/kg/injection, schedule: Q01DX005 (ip), vehicle: other 104 % of control | dose: 22.5 mg/kg/injection, schedule: Q01DX005 (ip), vehicle: other 104 % of control | dose: 45.0 mg/kg/injection, schedule: Q01DX005 (ip), vehicle: other 101 % of control | dose: 90.0 mg/kg/injection, schedule: Q01DX005 (ip), vehicle: other 97 % of control | dose: 180.0 mg/kg/injection, schedule: Q01DX005 (ip), vehicle: other 93 % of control | dose: 200.0 mg/kg/injection, schedule: Q01DX005 (ip), vehicle: other 102 % of control | dose: 400.0 mg/kg/injection, schedule: Q01DX005 (ip), vehicle: other 106 % of control

CC(C)C(=O)C(C)(C)C(=O)N1CCCCC1
inactive: [1] 96 % of control | [2] 103 % of control | [3] 94 % of control

CN(/N=C/c1ccccc1)C(=N)N
inactive: dose: 15.62 mg/kg/injection, schedule: Q04DX003 (ip), vehicle: saline 101 % of control | dose: 31.25 mg/kg/injection, schedule: Q04DX003 (ip), vehicle: saline 107 % of control | dose: 62.5 mg/kg/injection, schedule: Q04DX003 (ip), vehicle: saline 103 % of control

CN(C)NC(=O)CC(N)C(=O)O (stereo not drawn)
inactive: [4] 101 % of control | [5] 101 % of control | [6] 102 % of control

O[O][Sn][c]1ccccc1
inactive: [7] 93 % of control | [1] 89 % of control | [4] 100 % of control | [2] 91 % of control | [5] 97 % of control

O=NN(CCCl)C(=O)Nc1cc2c3ccccc3ccc2c2ccccc12
inactive: dose: 177.0 mg/kg/injection, schedule: Q01DX009 (ip), vehicle: saline with Tween-80 102 % of control | dose: 265.0 mg/kg/injection, schedule: Q01DX009 (ip), vehicle: saline with Tween-80 98 % of control | [3] 102 % of control | dose: 600.0 mg/kg/injection, schedule: Q01DX009 (ip), vehicle: saline with Tween-80 89 % of control

CCCC(CN(C)C)C(=O)c1ccccc1 (stereo not drawn)
inactive: dose: 100.0 mg/kg/injection, schedule: Q04DX002 (ip), vehicle: saline with Tween-80 86 % of control

Cc1ccc(-c2c(O)c(Br)c(-c3ccc(C)cc3C)c(O)c2Br)c(C)c1
inactive: [1] 97 % of control | [4] 93 % of control | [2] 97 % of control | [5] 90 % of control | [3] 94 % of control | [6] 92 % of control

C[Si](C)(C)Oc1cc(N=NNC2=CC(=O)c3ccccc3C2=O)c(O)c2ccccc12
inactive: dose: 12.5 mg/kg/injection, schedule: Q01DX009 (ip), vehicle: saline with Tween-80 95 % of control | [8] 98 % of control | [7] 95 % of control

CSc1ccccc1C(=O)OC(C)(C)C
inactive: [9] 96 % of control | [10] 103 % of control | [11] 103 % of control

CCOc1ccc(NC(=O)C(C)O)cc1 (stereo not drawn)
inactive: [1] 95 % of control | [4] 103 % of control | [2] 101 % of control | [5] 97 % of control | [3] 107 % of control | [6] 97 % of control

Cc1cc(N=C(N)N)ccc1C(=O)Oc1ccc([N+](=O)[O-])cc1
inactive: dose: 12.5 mg/kg/injection, schedule: Q01DX009 (ip), vehicle: other 102 % of control | dose: 25.0 mg/kg/injection, schedule: Q01DX009 (ip), vehicle: other 98 % of control | dose: 50.0 mg/kg/injection, schedule: Q01DX009 (ip), vehicle: other 90 % of control

C#CCOCCC(=O)O
inactive: dose: 50.0 mg/kg/injection, schedule: Q01DX009 (ip), vehicle: acetone 102 % of control | dose: 100.0 mg/kg/injection, schedule: Q01DX009 (ip), vehicle: acetone 100 % of control | dose: 200.0 mg/kg/injection, schedule: Q01DX009 (ip), vehicle: acetone 97 % of control

O=S1(=O)CC(Cl)C(Cl)C1 (stereo not drawn)
inactive: dose: 50.0 mg/kg/injection, schedule: Q04DX003 (ip), vehicle: alcohol 105 % of control

c1ccc(C2NNC(c3ccccc3)NN2)cc1 (stereo not drawn)
inactive: dose: 100.0 mg/kg/injection, schedule: Q01DX001 (ip), vehicle: other 100 % of control | dose: 200.0 mg/kg/injection, schedule: Q01DX001 (ip), vehicle: other 97 % of control | dose: 400.0 mg/kg/injection, schedule: Q01DX001 (ip), vehicle: other 92 % of control

CCOC(=O)NNC(=O)Nc1ccccc1F
inactive: [1] 104 % of control | [2] 88 % of control | [3] 94 % of control

CN(C)C1=NC1(C)C.CN(C)C1=NC1(C)C.[Cl][Pd][Cl]
inactive: dose: 3.13 mg/kg/injection, schedule: Q04DX003 (ip), vehicle: distilled water + Tween-80 96 % of control | dose: 6.25 mg/kg/injection, schedule: Q04DX003 (ip), vehicle: distilled water + Tween-80 101 % of control | dose: 12.5 mg/kg/injection, schedule: Q04DX003 (ip), vehicle: distilled water + Tween-80 96 % of control | dose: 25.0 mg/kg/injection, schedule: Q04DX003 (ip), vehicle: distilled water + Tween-80 105 % of control | dose: 50.0 mg/kg/injection, schedule: Q04DX003 (ip), vehicle: distilled water + Tween-80 101 % of control | dose: 100.0 mg/kg/injection, schedule: Q04DX003 (ip), vehicle: distilled water + Tween-80 114 % of control

O=[N+]([O-])c1ccc(Cl)c(CCl)c1
inactive: [1] 94 % of control | [4] 100 % of control | [2] 93 % of control | [5] 100 % of control | [6] 102 % of control

c1ccc2c(c1)-c1nc3ccccc3cc1C2N1CCCCC1 (stereo not drawn)
inactive: dose: 100.0 mg/kg/injection, schedule: Q01DX009 (ip), vehicle: saline 105 % of control | dose: 200.0 mg/kg/injection, schedule: Q01DX009 (ip), vehicle: saline 103 % of control | dose: 400.0 mg/kg/injection, schedule: Q01DX009 (ip), vehicle: saline 97 % of control

CS(=N)(=O)c1ccccc1 (stereo not drawn)
inactive: [12] 105 % of control | dose: 200.0 mg/kg/injection, schedule: Q04DX003 (ip), vehicle: saline 103 % of control | dose: 400.0 mg/kg/injection, schedule: Q04DX003 (ip), vehicle: saline 94 % of control

CCN(CC)C(=S)SC
inactive: dose: 75.0 mg/kg/injection, schedule: Q01DX001 (ip), vehicle: saline 104 % of control | dose: 150.0 mg/kg/injection, schedule: Q01DX001 (ip), vehicle: saline 106 % of control

Nc1ncnc2oc(-c3ccccc3)c(-c3ccccc3)c12
inactive: [9] 87 % of control | [10] 89 % of control | [11] 87 % of control

CCC(C)(C)c1ccc(O)cc1
inactive: [4] 104 % of control | [5] 98 % of control

COC(=O)c1ccccc1NC1=NCCO1
inactive: dose: 200.0 mg/kg/injection, schedule: Q04DX003 (ip), vehicle: Klucel (hydroxypropylcellulose) (HPC) 97 % of control | dose: 400.0 mg/kg/injection, schedule: Q04DX003 (ip), vehicle: Klucel (hydroxypropylcellulose) (HPC) 86 % of control

Cc1cc[n+](CCc2ccccc2)cc1
inactive: [8] 112 % of control | dose: 25.0 mg/kg/injection, schedule: Q04DX003 (ip), vehicle: saline 95 % of control | [7] 98 % of control | dose: 50.0 mg/kg/injection, schedule: Q04DX003 (ip), vehicle: saline 96 % of control | [12] 94 % of control
